{
  "source": "patent US7256192B2",
  "about": "“Aromatic diamide derivatives, chemicals for agricultural or horticultural use and usage thereof” (Nihon Nohyaku Co., Ltd., priority 1999, dated 2007)",
  "data": [
    {"system": "common cutworm (Spodoptera litura)", "experiment": "Insecticidal effect on common cutworm (Test Example 2)", "format": "in vivo", "conditions": "50 ppm; cabbage leaf immersed about 30 seconds; second-instar larvae; eight days after the inoculation; 25° C.", "source_text": "Insecticidal effect on common cutworm (Spodoptera litura)\nA piece of cabbage leaf (cultivar: Shikidori) was immersed for about 30 seconds in a liquid chemical prepared by diluting a preparation containing each compound listed in Table 1 or Table 2, as an active ingredient to adjust the concentration to 50 ppm. After air-drying, the piece was placed in a plastic Petri dish with a diameter of 9 cm and inoculated with second-instar larvae of common cutworm, after which the dish was closed and then allowed to stand in a room thermostated at 25° C. Eight days after the inoculation, the dead and alive were counted and the mortality was calculated according to the following equation, whereby the insecticidal effect was judged according to the criterion shown in Test Example 1. The test was carried out with three replications of 10 insects.", "values": [
      {"smiles": "CCCNC(=O)OCC(C)(C)NC(=O)c1c(I)cccc1C(=O)Nc1ccc(C(F)(C(F)(F)F)C(F)(F)F)cc1Cl", "note": "[compound 130]", "insecticidal activity (mortality rating)": "B or higher"},
      {"smiles": "CC(=O)NCC(C)(C)NC(=O)c1c(I)cccc1C(=O)Nc1ccc(C(F)(C(F)(F)F)C(F)(F)F)cc1C", "note": "[compound 28]", "insecticidal activity (mortality rating)": "B or higher"},
      {"smiles": "CCNC(=O)OCC(C)NC(=O)c1c(I)cccc1C(=O)Nc1ccc(C(F)(C(F)(F)F)C(F)(F)F)nc1Cl", "note": "(racemic) [2-39]", "insecticidal activity (mortality rating)": "B or higher"},
      {"smiles": "Cc1cc(C(F)(C(F)(F)F)C(F)(F)F)ccc1NC(=O)c1cccc(I)c1C(=O)NC(C)COC(=O)N(C)C", "note": "(stereo not shown) [compound 88]", "insecticidal activity (mortality rating)": "B or higher"},
      {"smiles": "CCNC(=O)OCC(C)NC(=O)c1c(I)cccc1C(=O)Nc1ccc(OC(C(F)(F)F)C(F)(F)F)nc1C", "note": "(racemic) [2-47]", "insecticidal activity (mortality rating)": "B or higher"},
      {"smiles": "COC(=O)NCC(C)NC(=O)c1c(I)cccc1C(=O)Nc1ccc(C(F)(C(F)(F)F)C(F)(F)F)cc1C", "note": "(stereo not shown) [compound 22]", "insecticidal activity (mortality rating)": "B or higher"},
      {"smiles": "Cc1cc(C(F)(C(F)(F)F)C(F)(F)F)ccc1NC(=O)c1cccc(I)c1C(=O)NC(C)CCOCC(C)C", "note": "(stereo not shown) [compound 74]", "insecticidal activity (mortality rating)": "B or higher"},
      {"smiles": "CCN(CC)C(=O)OCC(C)NC(=O)c1c(I)cccc1C(=O)Nc1ccc(C(F)(C(F)(F)F)C(F)(F)F)nc1C", "note": "(racemic) [2-32]", "insecticidal activity (mortality rating)": "B or higher"},
      {"smiles": "COc1ccc(CNC(=O)OCC(C)NC(=O)c2c(I)cccc2C(=O)Nc2ccc(OC(C(F)(F)F)C(F)(F)F)nc2C)cc1", "note": "(racemic) [2-72]", "insecticidal activity (mortality rating)": "B or higher"},
      {"smiles": "Cc1cc(C(F)(C(F)(F)F)C(F)(F)F)ccc1NC(=O)c1cccc(I)c1C(=O)NC(C)COC(=O)NC1CC1", "note": "(stereo not shown) [compound 133]", "insecticidal activity (mortality rating)": "B or higher"},
      {"smiles": "CCCNC(=O)OCC(C)(C)NC(=O)c1c(I)cccc1C(=O)Nc1ccc(C(F)(C(F)(F)F)C(F)(F)F)cc1C", "note": "[compound 129]", "insecticidal activity (mortality rating)": "B or higher"},
      {"smiles": "CCOC(=O)NCC(C)(C)NC(=O)c1c(I)cccc1C(=O)Nc1ccc(C(F)(F)C(F)(F)F)cc1C", "note": "[compound 19]", "insecticidal activity (mortality rating)": "B or higher"},
      {"smiles": "Cc1cc(C(F)(C(F)(F)F)C(F)(F)F)ccc1NC(=O)c1cccc(I)c1C(=O)NCC1COC(C)(C)O1", "note": "(stereo not shown) [compound 51]", "insecticidal activity (mortality rating)": "B or higher"},
      {"smiles": "Cc1cc(C(F)(C(F)(F)F)C(F)(F)F)ccc1NC(=O)c1ccc(Cl)c(Cl)c1C(=O)NC(C)COC(=O)NCc1ccccc1", "note": "(stereo not shown) [compound 229]", "insecticidal activity (mortality rating)": "B or higher"},
      {"smiles": "CCNC(=O)OCC(C)NC(=O)c1c(I)cccc1C(=O)Nc1ccc(C(F)(F)C(F)(F)C(F)(F)F)cc1C", "note": "(stereo not shown) [compound 272]", "insecticidal activity (mortality rating)": "B or higher"},
      {"smiles": "COCCNC(=O)OCC(C)(C)NC(=O)c1c(I)cccc1C(=O)Nc1ccc(C(F)(C(F)(F)F)C(F)(F)F)cc1C", "note": "[compound 172]", "insecticidal activity (mortality rating)": "B or higher"},
      {"smiles": "COCCC(C)NC(=O)c1c(I)cccc1C(=O)Nc1ccc(C(F)(C(F)(F)F)C(F)(F)F)cc1C", "note": "(stereo not shown) [compound 59]", "insecticidal activity (mortality rating)": "B or higher"},
      {"smiles": "Cc1cc(C(F)(C(F)(F)F)C(F)(F)F)ccc1NC(=O)c1cccc(I)c1C(=O)NC(C)(C)CNC(=O)C1CC1", "note": "[compound 29]", "insecticidal activity (mortality rating)": "B or higher"},
      {"smiles": "Cc1cc(OC(F)(F)F)ccc1NC(=O)c1cccc(I)c1C(=O)NC(C)COC(=O)NC1CC1", "note": "(stereo not shown) [compound 134]", "insecticidal activity (mortality rating)": "B or higher"},
      {"smiles": "CSCCCNC(=O)OCC(C)(C)NC(=O)c1c(I)cccc1C(=O)Nc1ccc(C(F)(C(F)(F)F)C(F)(F)F)cc1C", "note": "[compound 184]", "insecticidal activity (mortality rating)": "B or higher"},
      {"smiles": "CCNC(=O)OCC(C)NC(=O)c1c(I)cccc1C(=O)Nc1ccc(C(OCC)(C(F)(F)F)C(F)(F)F)cc1C", "note": "(stereo not shown) [compound 279]", "insecticidal activity (mortality rating)": "B or higher"},
      {"smiles": "CNC(=O)OCC(C)(C)NC(=O)c1c(I)cccc1C(=O)Nc1ccc(C(F)(C(F)(F)F)C(F)(F)F)nc1C", "note": "[2-35]", "insecticidal activity (mortality rating)": "B or higher"}
    ]}
  ]
}
